# From paper PMC2630805, “Anticancer Alkaloid Lamellarins Inhibit Protein Kinases” (Marine Drugs, 2008)
# Experiments:
# EphB4 kinase (h) = EphB4 kinase (h) (Homo sapiens, UniProt P54760); test: CEREP Kinase Selectivity Panel; type: biochemical; conditions: 10 μM lamellarin N
# p38δ kinase (h) = p38δ kinase (h) (Homo sapiens, UniProt O15264); test: CEREP Kinase Selectivity Panel; type: biochemical; conditions: 10 μM lamellarin N
# Ret kinase (h) = Ret kinase (h) (Homo sapiens, UniProt P07949); test: CEREP Kinase Selectivity Panel; type: biochemical; conditions: 10 μM lamellarin N
# IGF1R kinase (h) = IGF1R kinase (h) (Homo sapiens, UniProt P08069); test: CEREP Kinase Selectivity Panel; type: biochemical; conditions: 10 μM lamellarin N
# Fyn kinase (h) = Fyn kinase (h) (Homo sapiens, UniProt P06241); test: CEREP Kinase Selectivity Panel; type: biochemical; conditions: 10 μM lamellarin N
# MAPKAPK2 (h) = MAPKAPK2 (h) (Homo sapiens, UniProt P49137); test: CEREP Kinase Selectivity Panel; type: biochemical; conditions: 10 μM lamellarin N
# CDK5/p25 = CDK5/p25 (Homo sapiens, UniProt Q00535); test: CDK5/p25 kinase assay (histone H1)
# Method: Blank values were subtracted and activities calculated as pmoles of phosphate incorporated during a 30 min. incubation. The activities were expressed in % of the maximal activity, i.e. in the absence of inhibitors. Controls were performed with appropriate dilutions of dimethylsulfoxide. Unless otherwise stated, the P81 phosphocellulose assay was used.
# Its activity was assayed with histone H1 in buffer C as described for CDK1/cyclin B.
# FLT-3 kinase (h) = FLT-3 kinase (h) (Homo sapiens, UniProt P36888); test: CEREP Kinase Selectivity Panel; type: biochemical; conditions: 10 μM lamellarin N
# p38γ kinase (h) = p38γ kinase (h) (Homo sapiens, UniProt P53778); test: CEREP Kinase Selectivity Panel; type: biochemical; conditions: 10 μM lamellarin N
# CaMK4 (h) = CaMK4 (h) (Homo sapiens, UniProt Q16566); test: CEREP Kinase Selectivity Panel; type: biochemical; conditions: 10 μM lamellarin N
# ROCK2 (h) = ROCK2 (h) (Homo sapiens, UniProt O75116); test: CEREP Kinase Selectivity Panel; type: biochemical; conditions: 10 μM lamellarin N
# ERK1 (h) = ERK1 (h) (Homo sapiens, UniProt P27361); test: CEREP Kinase Selectivity Panel; type: biochemical; conditions: 10 μM lamellarin N
# [1] = tested on: human neuroblastoma SH-SY5Y cells; test: SH-SY5Y cell survival, MTS reduction assay; type: cell-based; conditions: read-out: IC50 SH-SY5Y cell survival
# Method: We next tested the effects of each lamellarin, at an initial 10 μM concentration, on the survival of the neuroblastoma SH-SY5Y cell line after 48 h exposure (Table 2). Cell survival was estimated by the MTS reduction assay.
# SH-SY5Y human neuroblastoma cells were grown in DMEM supplemented with 2mM L-glutamine (Invitrogen, Cergy Pontoise, France), plus antibiotics (penicillin-streptomycin) and a 10% volume of fetal calf serum (FCS) (Invitrogen). Cell viability was determined by means of the MTS (3- (4,5-dimethylthiazol-2-yl)-5- (3-carboxymethoxyphenyl)-2- (4-sulfophenyl)-2H -tetrazolium) reduction method as previously described. Cell death was (also) assayed by LDH release. Lactate dehydrogenase is a stable cytosolic enzyme that is released upon cell lysis. SH-SY5Y cells were also subjected to caspase activity assays. These are based on cleavage of a synthetic caspase substrate DEVD (MP Biomedicals, 199423), a subtrate of active caspase 3/6/7. The assay was carried out according to manufacturer’s instructions.
# Brk (h) = Brk (h) (Homo sapiens, UniProt Q13882); test: CEREP Kinase Selectivity Panel; type: biochemical; conditions: 10 μM lamellarin N
# Abl kinase (h) = Abl kinase (h) (Homo sapiens, UniProt P00519); test: CEREP Kinase Selectivity Panel; type: biochemical; conditions: 10 μM lamellarin N
# CDK2 (h) (cycE) = CDK2 (h) (cycE) (Homo sapiens, UniProt P24941); test: CEREP Kinase Selectivity Panel; type: biochemical; conditions: 10 μM lamellarin N
# BMX kinase (h) (Etk) = BMX kinase (h) (Etk) (Homo sapiens, UniProt P51813); test: CEREP Kinase Selectivity Panel; type: biochemical; conditions: 10 μM lamellarin N
# ERK2 (h) (P42mapk) = ERK2 (h) (P42mapk) (Homo sapiens, UniProt P28482); test: CEREP Kinase Selectivity Panel; type: biochemical; conditions: 10 μM lamellarin N
# KDR kinase (h) (VEGFR2) = KDR kinase (h) (VEGFR2) (Homo sapiens, UniProt P35968); test: CEREP Kinase Selectivity Panel; type: biochemical; conditions: 10 μM lamellarin N
# CDK1/cyclin B = CDK1/cyclin B kinase assay (histone H1, P81 phosphocellulose); type: biochemical, starfish (Marthasterias glacialis); conditions: 15 μM ATP; cell '− (x)' = no inhibitory activity detected, x = highest concentration tested
# Method: ATP (3,000 Ci/mmol; 1 mCi/ml) in a final volume of 30 μl. […] The wet filters were counted in the presence of 1 ml ACS (Amersham) scintillation fluid.
# CaMK2α (h) = CaMK2α (h) (Homo sapiens, UniProt Q9UQM7); test: CEREP Kinase Selectivity Panel; type: biochemical; conditions: 10 μM lamellarin N
# PKCβ 1 (h) = PKCβ 1 (h) (Homo sapiens, UniProt P05771); test: CEREP Kinase Selectivity Panel; type: biochemical; conditions: 10 μM lamellarin N
# CHK2 (h) = CHK2 (h) (Homo sapiens, UniProt O96017); test: CEREP Kinase Selectivity Panel; type: biochemical; conditions: 10 μM lamellarin N
# [2] = molecular target: FLT-1 kinase (h) (VEGFR1) (Homo sapiens, UniProt P17948); test: CEREP Kinase Selectivity Panel; type: biochemical; conditions: 10 μM lamellarin N
# SH-SY5Y cells = test: Kinetics and dose-response of cell death (MTS reduction, LDH release, DEVDase caspase activity); type: cell-based, human; conditions: dose-response, doses as low as
# Method: SH-SY5Y cells were next incubated with a range of lamellarin N concentrations or at 1 μM over 48 hrs. Cell survival was monitored by the MTS reduction assay, cell death was assessed by the LDH release assay and caspase activation was measured using DEVD as a substrate (Figure 1).
# Figure 1. Dose- and time- dependent induction of cell death by lamellarin N. (A) Neuroblastoma SH-SY5Y cells were treated with lamellarin N at various concentrations. Cell death was measured by LDH release, cell survival was assessed by the MTS reduction assay, and caspase 3 activity was monitored as DEVDase activity. MTS and LDH assay were carried out 48 hours after treatment with lamellarin N. The caspase assay was carried out 24 hours after treatment. (B) Kinetics of cell survival, cell death and caspases activation following exposure of SH-SY5Y cells to 1 μM lamellarin N. Average of 3 independent experiments performed in triplicate. The standard deviation (±SD) is indicated by error bars.
# SH-SY5Y human neuroblastoma cells were grown in DMEM supplemented with 2mM L-glutamine (Invitrogen, Cergy Pontoise, France), plus antibiotics (penicillin-streptomycin) and a 10% volume of fetal calf serum (FCS) (Invitrogen). Cell viability was determined by means of the MTS (3- (4,5-dimethylthiazol-2-yl)-5- (3-carboxymethoxyphenyl)-2- (4-sulfophenyl)-2H -tetrazolium) reduction method as previously described. […]
# c-Met kinase (h) = c-Met kinase (h) (Homo sapiens, UniProt P08581); test: CEREP Kinase Selectivity Panel; type: biochemical; conditions: 10 μM lamellarin N
# PIM 1 = PIM 1 (Homo sapiens, UniProt P11309); test: PIM1 kinase assay (histone H1); type: biochemical
# PDK1 (h) = PDK1 (h) (Homo sapiens, UniProt O15530); test: CEREP Kinase Selectivity Panel; type: biochemical; conditions: 10 μM lamellarin N
# JNK 2 (h) = JNK 2 (h) (Homo sapiens, UniProt P45984); test: CEREP Kinase Selectivity Panel; type: biochemical; conditions: 10 μM lamellarin N
# MEK1/MAP2K1 (h) = MEK1/MAP2K1 (h) (Homo sapiens, UniProt Q02750); test: CEREP Kinase Selectivity Panel; type: biochemical; conditions: 10 μM lamellarin N
# p38γ kinase (h), sequence (P53778 whole entry): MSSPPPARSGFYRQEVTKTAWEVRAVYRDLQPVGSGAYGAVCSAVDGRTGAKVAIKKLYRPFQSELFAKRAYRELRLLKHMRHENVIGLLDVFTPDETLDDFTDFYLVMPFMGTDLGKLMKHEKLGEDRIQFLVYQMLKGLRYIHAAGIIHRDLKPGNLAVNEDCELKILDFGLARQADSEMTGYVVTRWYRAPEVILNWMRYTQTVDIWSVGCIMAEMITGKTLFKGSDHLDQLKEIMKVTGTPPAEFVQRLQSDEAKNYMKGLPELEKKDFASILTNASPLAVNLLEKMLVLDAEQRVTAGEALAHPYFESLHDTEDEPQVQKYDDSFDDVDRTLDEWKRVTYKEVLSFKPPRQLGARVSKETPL
# KDR kinase (h) (VEGFR2), sequence (P35968 20-1356): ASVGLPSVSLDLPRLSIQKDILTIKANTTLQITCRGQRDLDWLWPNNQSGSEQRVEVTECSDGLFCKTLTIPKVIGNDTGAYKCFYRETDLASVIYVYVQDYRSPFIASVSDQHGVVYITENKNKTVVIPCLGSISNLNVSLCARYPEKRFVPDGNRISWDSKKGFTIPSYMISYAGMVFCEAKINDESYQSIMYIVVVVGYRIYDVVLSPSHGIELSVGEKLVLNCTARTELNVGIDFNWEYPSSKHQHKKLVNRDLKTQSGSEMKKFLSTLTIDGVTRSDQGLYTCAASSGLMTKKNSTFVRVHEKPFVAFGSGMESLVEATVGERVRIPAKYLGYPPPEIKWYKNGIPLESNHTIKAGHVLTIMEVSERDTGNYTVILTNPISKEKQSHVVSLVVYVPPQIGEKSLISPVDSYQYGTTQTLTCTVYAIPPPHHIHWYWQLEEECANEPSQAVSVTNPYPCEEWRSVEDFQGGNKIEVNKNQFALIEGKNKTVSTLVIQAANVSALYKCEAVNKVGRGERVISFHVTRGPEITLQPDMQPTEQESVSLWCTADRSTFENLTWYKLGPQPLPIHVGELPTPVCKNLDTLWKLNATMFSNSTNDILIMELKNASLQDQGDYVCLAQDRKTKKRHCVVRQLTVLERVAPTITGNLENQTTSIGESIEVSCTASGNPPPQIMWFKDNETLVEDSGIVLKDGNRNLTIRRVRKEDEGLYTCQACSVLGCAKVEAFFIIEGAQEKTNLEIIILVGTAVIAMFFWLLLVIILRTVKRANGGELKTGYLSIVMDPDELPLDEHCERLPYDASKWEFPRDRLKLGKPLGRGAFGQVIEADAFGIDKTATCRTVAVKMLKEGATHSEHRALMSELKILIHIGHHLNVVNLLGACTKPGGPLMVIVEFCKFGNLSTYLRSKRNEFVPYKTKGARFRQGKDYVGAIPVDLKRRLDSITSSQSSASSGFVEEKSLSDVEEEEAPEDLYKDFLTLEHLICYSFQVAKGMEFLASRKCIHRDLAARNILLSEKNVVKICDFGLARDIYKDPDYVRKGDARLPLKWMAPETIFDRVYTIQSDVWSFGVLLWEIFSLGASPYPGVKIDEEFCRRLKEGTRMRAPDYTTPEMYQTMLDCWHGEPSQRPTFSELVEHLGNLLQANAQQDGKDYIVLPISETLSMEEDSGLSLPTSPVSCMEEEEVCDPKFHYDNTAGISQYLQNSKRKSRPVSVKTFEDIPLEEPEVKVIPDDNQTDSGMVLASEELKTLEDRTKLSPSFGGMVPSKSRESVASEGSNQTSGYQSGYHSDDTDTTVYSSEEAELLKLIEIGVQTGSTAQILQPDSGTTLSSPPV
# ERK2 (h) (P42mapk), sequence (P28482 whole entry): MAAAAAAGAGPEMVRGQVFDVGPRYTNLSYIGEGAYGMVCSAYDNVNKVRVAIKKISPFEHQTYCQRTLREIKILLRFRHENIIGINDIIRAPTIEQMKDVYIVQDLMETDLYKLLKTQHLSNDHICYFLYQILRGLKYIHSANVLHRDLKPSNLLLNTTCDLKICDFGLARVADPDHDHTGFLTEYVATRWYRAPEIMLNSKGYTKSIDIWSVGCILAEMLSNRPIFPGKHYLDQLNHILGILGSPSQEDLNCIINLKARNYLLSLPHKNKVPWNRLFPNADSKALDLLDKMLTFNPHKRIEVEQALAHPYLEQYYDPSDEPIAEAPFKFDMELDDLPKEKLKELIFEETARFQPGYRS
# FLT-3 kinase (h), sequence (P36888 27-993): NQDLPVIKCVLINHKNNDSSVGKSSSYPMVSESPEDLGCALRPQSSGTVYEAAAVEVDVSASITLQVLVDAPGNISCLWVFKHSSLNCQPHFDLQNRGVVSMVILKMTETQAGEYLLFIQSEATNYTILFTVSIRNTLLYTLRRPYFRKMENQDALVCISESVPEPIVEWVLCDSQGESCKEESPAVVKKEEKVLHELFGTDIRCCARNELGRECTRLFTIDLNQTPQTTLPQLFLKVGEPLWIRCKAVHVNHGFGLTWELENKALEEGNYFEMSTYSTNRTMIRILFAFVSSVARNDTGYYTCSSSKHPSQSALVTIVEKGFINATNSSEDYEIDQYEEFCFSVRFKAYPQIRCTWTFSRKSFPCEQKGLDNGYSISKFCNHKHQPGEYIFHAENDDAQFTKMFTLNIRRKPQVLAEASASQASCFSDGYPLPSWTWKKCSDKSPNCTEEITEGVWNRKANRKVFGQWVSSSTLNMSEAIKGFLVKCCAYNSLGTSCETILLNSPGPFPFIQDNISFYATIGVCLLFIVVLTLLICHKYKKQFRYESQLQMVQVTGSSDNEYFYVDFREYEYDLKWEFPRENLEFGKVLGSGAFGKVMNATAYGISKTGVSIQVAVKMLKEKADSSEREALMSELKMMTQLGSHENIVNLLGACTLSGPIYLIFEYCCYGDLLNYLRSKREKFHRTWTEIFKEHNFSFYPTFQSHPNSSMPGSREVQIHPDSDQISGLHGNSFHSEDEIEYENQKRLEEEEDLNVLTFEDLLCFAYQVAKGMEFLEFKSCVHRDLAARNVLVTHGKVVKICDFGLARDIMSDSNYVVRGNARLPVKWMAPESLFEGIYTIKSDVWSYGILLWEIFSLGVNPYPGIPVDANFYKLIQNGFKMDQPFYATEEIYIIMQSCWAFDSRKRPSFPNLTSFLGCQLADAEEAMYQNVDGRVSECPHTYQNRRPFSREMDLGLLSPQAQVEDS
# c-Met kinase (h), sequence (P08581 25-1390): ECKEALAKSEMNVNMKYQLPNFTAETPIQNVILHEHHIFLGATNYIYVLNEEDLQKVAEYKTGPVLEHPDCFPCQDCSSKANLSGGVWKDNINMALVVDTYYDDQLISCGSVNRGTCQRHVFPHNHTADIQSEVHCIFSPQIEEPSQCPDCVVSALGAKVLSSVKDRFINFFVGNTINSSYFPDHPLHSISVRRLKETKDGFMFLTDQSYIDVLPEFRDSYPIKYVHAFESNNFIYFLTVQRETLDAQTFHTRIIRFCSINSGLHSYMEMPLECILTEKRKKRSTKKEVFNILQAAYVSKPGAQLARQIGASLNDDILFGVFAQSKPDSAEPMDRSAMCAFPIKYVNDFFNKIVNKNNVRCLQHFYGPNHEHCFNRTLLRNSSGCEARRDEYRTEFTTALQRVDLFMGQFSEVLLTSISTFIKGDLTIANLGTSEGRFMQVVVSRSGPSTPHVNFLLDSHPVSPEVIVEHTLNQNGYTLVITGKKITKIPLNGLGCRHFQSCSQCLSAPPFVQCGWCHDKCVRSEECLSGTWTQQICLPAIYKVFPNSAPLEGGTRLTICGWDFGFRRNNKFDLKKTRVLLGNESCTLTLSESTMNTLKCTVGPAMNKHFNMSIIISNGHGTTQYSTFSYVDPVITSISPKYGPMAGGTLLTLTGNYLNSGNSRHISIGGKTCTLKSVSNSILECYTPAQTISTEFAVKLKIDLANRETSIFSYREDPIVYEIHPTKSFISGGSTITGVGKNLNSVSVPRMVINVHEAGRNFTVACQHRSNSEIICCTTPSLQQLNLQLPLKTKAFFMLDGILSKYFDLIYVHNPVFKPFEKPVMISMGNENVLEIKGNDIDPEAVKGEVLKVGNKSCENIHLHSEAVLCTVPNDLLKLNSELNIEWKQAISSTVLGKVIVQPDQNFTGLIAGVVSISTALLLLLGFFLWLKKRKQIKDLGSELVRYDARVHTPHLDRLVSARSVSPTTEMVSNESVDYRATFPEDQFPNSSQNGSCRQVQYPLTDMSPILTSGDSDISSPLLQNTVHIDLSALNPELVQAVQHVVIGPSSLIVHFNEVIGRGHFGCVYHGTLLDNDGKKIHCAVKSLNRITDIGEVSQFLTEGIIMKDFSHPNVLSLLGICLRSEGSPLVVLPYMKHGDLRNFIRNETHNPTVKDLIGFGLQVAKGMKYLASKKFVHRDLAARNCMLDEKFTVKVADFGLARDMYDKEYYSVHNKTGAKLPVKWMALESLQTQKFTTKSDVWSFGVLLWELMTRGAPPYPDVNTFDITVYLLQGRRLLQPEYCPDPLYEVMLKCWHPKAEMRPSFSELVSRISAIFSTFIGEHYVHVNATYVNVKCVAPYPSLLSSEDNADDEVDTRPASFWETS
# CaMK4 (h), sequence (Q16566 whole entry): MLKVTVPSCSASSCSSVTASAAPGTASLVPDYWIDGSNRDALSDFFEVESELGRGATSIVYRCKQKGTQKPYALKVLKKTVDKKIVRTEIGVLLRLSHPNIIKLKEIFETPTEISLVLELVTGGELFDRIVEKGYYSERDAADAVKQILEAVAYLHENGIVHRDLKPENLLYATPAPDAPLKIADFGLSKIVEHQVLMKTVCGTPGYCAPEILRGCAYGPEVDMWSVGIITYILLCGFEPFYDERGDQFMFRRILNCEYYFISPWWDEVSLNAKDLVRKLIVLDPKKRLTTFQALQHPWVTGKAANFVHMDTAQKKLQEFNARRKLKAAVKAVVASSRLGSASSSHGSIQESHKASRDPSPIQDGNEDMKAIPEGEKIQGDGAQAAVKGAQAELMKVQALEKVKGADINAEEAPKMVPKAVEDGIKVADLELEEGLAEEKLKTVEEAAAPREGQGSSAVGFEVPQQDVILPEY
smiles,measurement,setting,value
"COc1ccc(-c2c3c4cc(OC)c(O)cc4oc(=O)c3n3ccc4cc(O)c(OC)cc4c23)cc1O [Compound 6, lamellarin N]",Activity (% of control),EphB4 kinase (h),89.7 % of control
same,Activity (% of control),p38δ kinase (h),96.0 % of control
same,Activity (% of control),Ret kinase (h),1.8 % of control
same,Activity (% of control),IGF1R kinase (h),87.2 % of control
same,Activity (% of control),Fyn kinase (h),20.1 % of control
same,Activity (% of control),MAPKAPK2 (h),96.6 % of control
same,IC50,CDK5/p25,25 nM
same,Activity (% of control),FLT-3 kinase (h),0.4 % of control
same,Activity (% of control),p38γ kinase (h),79.6 % of control
same,Activity (% of control),CaMK4 (h),89.9 % of control
same,Activity (% of control),ROCK2 (h),103.3 % of control
same,Activity (% of control),ERK1 (h),94.1 % of control
same,IC50,[1],25 nM
same,Activity (% of control),Brk (h),72.8 % of control
same,Activity (% of control),Abl kinase (h),61.4 % of control
same,Activity (% of control),CDK2 (h) (cycE),57.1 % of control
same,Activity (% of control),BMX kinase (h) (Etk),60.8 % of control
same,Activity (% of control),ERK2 (h) (P42mapk),79.9 % of control
same,Activity (% of control),KDR kinase (h) (VEGFR2),7.4 % of control
same,IC50,CDK1/cyclin B,70 nM
same,Activity (% of control),CaMK2α (h),38.2 % of control
same,Activity (% of control),PKCβ 1 (h),102.0 % of control
same,Activity (% of control),CHK2 (h),47.6 % of control
same,Activity (% of control),[2],4.0 % of control
same,lowest dose at which cells start dying,SH-SY5Y cells,0.05 µM
same,Activity (% of control),c-Met kinase (h),92.1 % of control
same,IC50,PIM 1,55 nM
same,Activity (% of control),PDK1 (h),89.8 % of control
same,Activity (% of control),JNK 2 (h),15.7 % of control
same,Activity (% of control),MEK1/MAP2K1 (h),81.5 % of control
